Reference: article PMC10762035, “Molecular basis of human trace amine-associated receptor 1 activation” (Nature Communications, 2024)
Residue numbers refer to the chain shown, from its start. Where “and” joins values, the source holds several entries; their conditions need not be identical. Equal values may be shown once.

Tests used:
Format in all cases: cell-based
hTA1 W264F = molecular target: T1, hTA1 W264F (Homo sapiens, UniProt Q96RJ0, W264F); assay: GloSensor cAMP accumulation assay, W264F mutant; details: W264F; n=2;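 further: cells transiently transfected with receptor plus GloSensor, luminescence read 30 min after agonist addition at room temperature, concentration-response curves fitted by log(agonist) vs response regression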
T1 construct: expressed in transfected cells; host or cells: HEK293T
T1 sequence (Q96RJ0 1-339 W264F): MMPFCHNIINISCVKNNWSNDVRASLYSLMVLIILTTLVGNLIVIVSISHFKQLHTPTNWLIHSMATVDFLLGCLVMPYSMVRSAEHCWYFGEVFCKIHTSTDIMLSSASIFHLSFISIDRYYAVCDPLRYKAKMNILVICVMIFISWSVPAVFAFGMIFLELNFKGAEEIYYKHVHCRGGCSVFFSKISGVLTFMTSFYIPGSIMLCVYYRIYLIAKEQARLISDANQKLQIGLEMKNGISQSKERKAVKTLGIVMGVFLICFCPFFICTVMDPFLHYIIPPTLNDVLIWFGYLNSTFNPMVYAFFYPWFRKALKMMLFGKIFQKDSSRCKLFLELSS

hTA1 V184P = molecular target: T2, hTA1 V184P (Homo sapiens, UniProt Q96RJ0, V184P); assay: GloSensor cAMP accumulation assay, V184P mutant; details: for cAMP accumulation response, single replicate values (source data, Supplementary Figure 5): hTA1 V184P (N=2), log[Compound]
T2 construct: expressed in transfected cells; host or cells: HEK293T
T2 sequence (Q96RJ0 1-339 V184P): T1 sequence (Q96RJ0 1-339 W264F) with V184P, F264W

hTA1 C5S = molecular target: T3, hTA1 C5S (Homo sapiens, UniProt Q96RJ0, C5S); assay: GloSensor cAMP accumulation assay, C5S mutant; details: for C5S - Normalized Luminescence Counts (N=2): log[Compound], single wells
T3 construct: expressed in transfected cells; host or cells: HEK293T
T3 sequence (Q96RJ0 1-339 C5S): T1 sequence (Q96RJ0 1-339 W264F) with C5S, F264W

Cc1c(F)cccc1[C@H]1COC(N)=N1 [Ro5263397]
pEC50 ± SEM (hTA1 W264F): 5.78 ± 0.06
Span ± SEM (Emax normalized to β-PEA) (hTA1 V184P; V184P, n=2): 67.49 ± 4.18
pEC50 ± SEM (hTA1 V184P; V184P, n=2): 8.72 ± 0.1
EC50 (hTA1 V184P; V184P, n=2, read-out: EC50): 1.89 nM
cAMP accumulation response, single replicate values (source data, Supplementary Figure 5) (hTA1 V184P; M = -5): 75.9826 and 54.4514 and 68.5146 and 68.2232 and 103.41 and 63.2018
cAMP accumulation response, single replicate values (source data, Supplementary Figure 5) (hTA1 V184P; M = -5.522): 60.8526 and 56.6821 and 51.6388 and 54.9916 and 88.8585 and 75.7736
cAMP accumulation response, single replicate values (source data, Supplementary Figure 5) (hTA1 V184P; M = -6): 62.1134 and 62.7923 and 57.749 and 52.2793 and 90.2146 and 61.0026
cAMP accumulation response, single replicate values (source data, Supplementary Figure 5) (hTA1 V184P; M = -6.522): 55.2273 and 58.8159 and 63.0833 and 59.17 and 90.5079 and 61.9556
cAMP accumulation response, single replicate values (source data, Supplementary Figure 5) (hTA1 V184P; M = -7): 76.2736 and 57.458 and 63.8592 and 78.4492 and 93.4034 and 75.9935
cAMP accumulation response, single replicate values (source data, Supplementary Figure 5) (hTA1 V184P; M = -7.522): 63.0833 and 60.2707 and 53.2876 and 78.6325 and 73.831 and 68.1499
cAMP accumulation response, single replicate values (source data, Supplementary Figure 5) (hTA1 V184P; M = -8): 45.7226 and 42.0371 and 33.6962 and 79.732 and 85.8896 and 81.3081
cAMP accumulation response, single replicate values (source data, Supplementary Figure 5) (hTA1 V184P; M = -8.522): 24.6764 and 22.5426 and 25.9372 and 54.0753 and 61.6257 and 60.123
cAMP accumulation response, single replicate values (source data, Supplementary Figure 5) (hTA1 V184P; M = -9): 15.8505 and 15.9475 and 14.9776 and 42.9696 and 48.944 and 40.6972
cAMP accumulation response, single replicate values (source data, Supplementary Figure 5) (hTA1 V184P; M = -9.522): 5.57 and 4.794 and 3.436 and 18.8157 and 20.0985 and 19.2188
cAMP accumulation response, single replicate values (source data, Supplementary Figure 5) (hTA1 V184P; M = -10): -0.05538 and 0.9145 and 0.6235 and 8.626 and 10.7888 and 9.213
cAMP accumulation response, single replicate values (source data, Supplementary Figure 5) (hTA1 V184P; M = -10.522): -0.8313 and -0.6373 and -1.025 and 2.3587 and 2.835 and 2.469
cAMP accumulation response, single replicate values (source data, Supplementary Figure 5) (hTA1 V184P; M = -11): -0.6373 and -0.7343 and -1.316 and 1.442 and 2.102 and 1.039
cAMP accumulation response, single replicate values (source data, Supplementary Figure 5) (hTA1 V184P; M = -11.522): -1.025 and -1.607 and -1.51 and 0.1962 and 0.9659 and -0.5735
cAMP accumulation response, single replicate values (source data, Supplementary Figure 5) (hTA1 V184P; M = -12): -0.9283 and -1.122 and -1.4132 and 19.5854 and 20.7216 (2×)
cAMP accumulation response, single replicate values (source data, Supplementary Figure 5) (hTA1 V184P; M = -12.522): -1.316 and -1.219 and -0.9283 and 4.704 and 5.621 and 6.281
pEC50 values, Mean (hTA1 V184P; hTA1 V184P mutant, Figure 3B source data, each grid row a separate experiment, 3 replicates): 8.393 and 9.05
Emax values, Mean (hTA1 V184P; hTA1 V184P mutant, β-PEA set to 100, each grid row a separate experiment, 3 replicates): 63.3156 and 71.6719
Span ± SEM (Emax normalized to β-PEA) (hTA1 C5S; C5S, n=2): 85.5 ± 2.16
pEC50 ± SEM (hTA1 C5S; C5S, n=2): 8.41 ± 0.07
EC50 (hTA1 C5S; C5S, n=2, read-out: EC50): 3.89 nM
ΔpEC50 values (each mutant value - WT average), Mean (hTA1 C5S; hTA1 C5S minus WT average): -0.4275 and -0.4158
pEC50 values, Mean (hTA1 C5S; hTA1 C5S, mean of 3 replicates, one line per independent experiment): 8.404 and 8.415
Emax values, Mean (hTA1 C5S; hTA1 C5S, β-PEA = 100, mean of 3 replicates, one line per independent experiment): 87.6591 and 83.3363
C5S - Normalized Luminescence Counts (N=2) (hTA1 C5S; M = -5): 85.0708 and 100.74 and 87.5995 and 113.126 and 96.6929 and 89.5813
C5S - Normalized Luminescence Counts (N=2) (hTA1 C5S; M = -5.522): 97.1276 and 85.703 and 92.1378 and 95.6573 and 94.8978 and 70.801
C5S - Normalized Luminescence Counts (N=2) (hTA1 C5S; M = -6): 93.0635 and 85.8836 and 79.9907 and 67.4868 and 91.9288 and 67.763
C5S - Normalized Luminescence Counts (N=2) (hTA1 C5S; M = -6.522): 88.5027 and 85.5675 and 89.6542 and 93.5169 and 82.6077 and 78.2579
C5S - Normalized Luminescence Counts (N=2) (hTA1 C5S; M = -7): 87.2609 and 83.7612 and 87.2157 and 111.607 and 73.6318 and 82.4696
C5S - Normalized Luminescence Counts (N=2) (hTA1 C5S; M = -7.522): 71.4335 and 67.6629 and 81.3002 and 85.1624 and 76.2555 and 81.6411
C5S - Normalized Luminescence Counts (N=2) (hTA1 C5S; M = -8): 61.928 and 52.9645 and 61.8152 and 50.2945 and 70.0415 and 59.7537
C5S - Normalized Luminescence Counts (N=2) (hTA1 C5S; M = -8.522): 48.2456 and 39.1466 and 43.2332 and 39.9378 and 36.8998 and 46.1518
C5S - Normalized Luminescence Counts (N=2) (hTA1 C5S; M = -9): 23.0031 and 19.2551 and 16.9296 and 21.986 and 33.2404 and 18.948
C5S - Normalized Luminescence Counts (N=2) (hTA1 C5S; M = -9.522): 10.2012 and 7.989 and 6.476 and 12.3887 and 12.803 and 8.1079
